Measurements: patent US20090227619A1, “Harmine derivatives, intermediates used in their preparations, preparation processes and use therefo” (priority 2003, published 2009)
Like-named read-outs stand apart in the source and are kept apart here.

How the values were obtained:
HepG2 = test: In vitro cytotoxicity, IC50 by MTT method, HepG2; type: cell-based, human; details: Homo sapiens
Procedure, shortened: (§1)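 Cells in RPMI1640 with 10% FBS at 37° C, 5% CO2 were seeded at 10^5/ml and exposed to a compound concentration gradient for 48 h, at least three replicates, solvent controls.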

PLA-801 = test: In vitro cytotoxicity, IC50 by MTT method, PLA-801; type: cell-based
Procedure, shortened: as §1

Bel-7402 = test: In vitro cytotoxicity, IC50 by MTT method, Bel-7402; type: cell-based; details: Homo sapiens, Bel-7402
Procedure, shortened: as §1

BGC-823 = test: In vitro cytotoxicity, IC50 by MTT method, BGC-823; type: cell-based; details: Homo sapiens, BGC-823
Procedure, shortened: as §1

Hela = test: In vitro cytotoxicity, IC50 by MTT method, Hela; type: cell-based; details: Homo sapiens
Procedure, shortened: as §1

Lovo = test: In vitro cytotoxicity, IC50 by MTT method, Lovo; type: cell-based; details: Homo sapiens
Procedure, shortened: as §1

NIH3T3 = test: In vitro cytotoxicity, IC50 by MTT method, NIH3T3; type: cell-based; details: Mus musculus
Procedure, shortened: as §1

Kunming mice = details: for Death rate: single i.p.
Lewis lung cancer = details: for Body weight of the animals, end, First time / Body weight of the animals, end, Second time / Body weight of the animals, beginning, First time / Inhibition rate, First time / Weight of the tumor X ± SD, First time / Body weight of the animals, beginning, Second time / Inhibition rate, Second time / Weight of the tumor X ± SD, Second time / Inhibition rate (%) Lewis cancer: Lewis lung cancer; for Body weight of the animals, end, First time / Body weight of the animals, end, Second time: ip × 10qd; for Inhibition rate (%) Lewis cancer: comparison table 43, in vivo
S180 sarcoma = details: S180 sarcoma; for Body weight of the animals, beginning, First time / Body weight of the animals, end, First time / Inhibition rate, First time / Weight of the tumor X ± SD, First time / Body weight of the animals, beginning, Second time / Body weight of the animals, end, Second time / Inhibition rate, Second time: ip × 10qd; for Inhibition rate (%) S180 sarcomata: comparison table 43, in vivo
in vivo = details: both, mouse, ip
[1] = 50% male 50% female mice, 240 mg/kg
[2] = 50% male 50% female mice, 300 mg/kg
[3] = HepG2 cell strain, read-out: IC50 HepG2
[4] = PLA-801 cell strain, read-out: IC50 PLA-801
[5] = Bel7402 cell strain, read-out: IC50 Bel7402
[6] = BGC823 cell strain, read-out: IC50 BGC823
[7] = Hela cell strain, read-out: IC50 Hela
[8] = Lovo cell strain, read-out: IC50 Lovo
[9] = NIH3T3 cell strain, read-out: IC50 NIH3T3
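For Anti-tumor activity compared with harmine (compound 1) in this document: mice implanted subcutaneously in the axilla with Lewis lung tumor cells, treated starting the following day, killed roughly three weeks after implantation.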
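For Death rate in this document: acute toxicity in Kunming mice grouped by sex, one intraperitoneal dose at five graded levels in Tween-80 plus 0.5% CMC-Na, deaths monitored over two weeks.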
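For Inhibition rate (%) Lewis cancer in this document: mice implanted subcutaneously in the axilla with Lewis lung tumor cells, treated starting the following day, killed roughly three weeks after implantation.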
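For LD50 in this document: acute toxicity in Kunming mice grouped by sex, one intraperitoneal dose at five graded levels in Tween-80 plus 0.5% CMC-Na, deaths monitored over two weeks.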
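For MTD in this document: acute toxicity in Kunming mice grouped by sex, one intraperitoneal dose at five graded levels in Tween-80 plus 0.5% CMC-Na, deaths monitored over two weeks.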
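For Sex in this document: acute toxicity in Kunming mice grouped by sex, one intraperitoneal dose at five graded levels in Tween-80 plus 0.5% CMC-Na, deaths monitored over two weeks.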

## CCOC(=O)c1cc2c([nH]c3ccccc32)c(C)n1 [Compound 11, ethyl 1-methyl-β-carboline-3-carboxylate]
HepG2; HepG2, MTT, read-out: IC50
  IC50: 90 µM
PLA-801; PLA-801, MTT, read-out: IC50
  IC50: 260 µM
Bel-7402; BeI7402, MTT, read-out: IC50
  IC50: 230 µM
BGC-823; BGC823, MTT, read-out: IC50
  IC50: 110 µM
Hela; Hela, MTT, read-out: IC50
  IC50: 100 µM
Lovo; Lovo, MTT, read-out: IC50
  IC50: 80 µM
NIH3T3; NIH3T3, MTT, read-out: IC50
  IC50: 100 µM
Kunming mice; [1]
  Death rate: 90
Kunming mice; [2]
  Death rate: 100
Kunming mice; female mice, 240 mg/kg
  Death rate: 100
Kunming mice; female mice, 300 mg/kg
  Death rate: 100
Kunming mice; male mice, 240 mg/kg
  Death rate: 80
Kunming mice; male mice, 300 mg/kg
  Death rate: 100
Kunming mice; mouse, in vivo, ip
  LD50: 159 to 211 mg/kg
Lewis lung cancer; Dosage 25 (mg/ml)
  Body weight of the animals, end, First time: 23.4 g
  Body weight of the animals, end, Second time: 24.5 g
Lewis lung cancer; Dosage 25, ip × 10qd
  Body weight of the animals, beginning, First time: 18.7 g
  Inhibition rate, First time: 29.08%
  Weight of the tumor X ± SD, First time: 1.78 ± 0.16 g
  Body weight of the animals, beginning, Second time: 19.9 g
  Inhibition rate, Second time: 33.05%
  Weight of the tumor X ± SD, Second time: 1.58 ± 0.09 g
Lewis lung cancer; Dosage 50 (mg/ml)
  Body weight of the animals, end, First time: 23.0 g
  Body weight of the animals, end, Second time: 23.8 g
Lewis lung cancer; Dosage 50, ip × 10qd
  Body weight of the animals, beginning, First time: 18.3 g
  Inhibition rate, First time: 44.22%
  Weight of the tumor X ± SD, First time: 1.40 ± 0.16 g
  Body weight of the animals, beginning, Second time: 19.8 g
  Inhibition rate, Second time: 42.8%
  Weight of the tumor X ± SD, Second time: 1.35 ± 0.14 g
Lewis lung cancer
  Inhibition rate (%) Lewis cancer: 44.22%
S180 sarcoma; Dosage 25 (mg/ml)
  Body weight of the animals, beginning, First time: 19.5 g
  Body weight of the animals, end, First time: 26.3 g
  Inhibition rate, First time: 34.74%
  Weight of the tumor X ± SD, First time: 1.86 ± 0.18 g
  Body weight of the animals, beginning, Second time: 20.4 g
  Body weight of the animals, end, Second time: 24.2 g
  Inhibition rate, Second time: 31.93%
S180 sarcoma; Dosage 25, ip × 10qd
  Weight of the tumor X ± SD, Second time: 1.94 ± 0.16 g
S180 sarcoma; Dosage 50 (mg/ml)
  Body weight of the animals, beginning, First time: 19.5 g
  Body weight of the animals, end, First time: 25.9 g
  Inhibition rate, First time: 44.21%
  Weight of the tumor X ± SD, First time: 1.59 ± 0.16 g
  Body weight of the animals, beginning, Second time: 20.6 g
  Body weight of the animals, end, Second time: 23.9 g
  Inhibition rate, Second time: 43.16%
S180 sarcoma; Dosage 50, ip × 10qd
  Weight of the tumor X ± SD, Second time: 1.62 ± 0.38 g
S180 sarcoma
  Inhibition rate (%) S180 sarcomata: 44.21%
In vivo; Kunming
  LD50 at 2 weeks: 183 mg/kg

## COC(=O)c1cc2c([nH]c3ccccc32)c(-c2ccc(O)cc2)n1 [Compound 16, methyl 1-(4-hydroxyphenyl)-β-carboline-3-carboxylate]
HepG2; HepG2, MTT, read-out: IC50
  IC50: > 5000 µM
PLA-801; PLA-801, MTT, read-out: IC50
  IC50: 1020 µM
Bel-7402; BeI7402, MTT, read-out: IC50
  IC50: 1080 µM
BGC-823; BGC823, MTT, read-out: IC50
  IC50: 970 µM
Hela; Hela, MTT, read-out: IC50
  IC50: 150 µM
Lovo; Lovo, MTT, read-out: IC50
  IC50: 620 µM
NIH3T3; NIH3T3, MTT, read-out: IC50
  IC50: 2180 µM
Kunming mice; [1]
  Death rate: 0
Kunming mice; [2]
  Death rate: 30
Kunming mice; both, Kunming, mouse, in vivo, ip, 2 weeks
  Sex: 240
Kunming mice; female mice, 240 mg/kg
  Death rate: 0
Kunming mice; female mice, 300 mg/kg
  Death rate: 40
Kunming mice; male mice, 240 mg/kg
  Death rate: 0
Kunming mice; male mice, 300 mg/kg
  Death rate: 20
Lewis lung cancer
  Inhibition rate (%) Lewis cancer: 37.86%
S180 sarcoma
  Inhibition rate (%) S180 sarcomata: 32.96%
In vivo; Kunming
  MTD at 2 weeks: 240 mg/kg

## O=C(O)c1cc2c3ccccc3n(CCCc3ccccc3)c2cn1 [Compound 48, 9-phenylpropyl-β-carboline-3-carboxylic acid]
HepG2; [3]
  IC50: 30 µM
PLA-801; [4]
  IC50: 260 µM
Bel-7402; [5]
  IC50: 50 µM
BGC-823; [6]
  IC50: 30 µM
Hela; [7]
  IC50: 100 µM
Lovo; [8]
  IC50: 10 µM
NIH3T3; [9]
  IC50: 30 µM
Kunming mice; [1]
  Death rate: 60
Kunming mice; [2]
  Death rate: 100
Kunming mice; female mice, 240 mg/kg
  Death rate: 60
Kunming mice; female mice, 300 mg/kg
  Death rate: 100
Kunming mice; male mice, 240 mg/kg
  Death rate: 60
Kunming mice; male mice, 300 mg/kg
  Death rate: 100
Kunming mice; mouse, in vivo, ip
  LD50: 193 to 249 mg/kg
Lewis lung cancer; Dosage 50 (mg/ml)
  Body weight of the animals, end, First time: 25.3 g
  Body weight of the animals, end, Second time: 25.0 g
Lewis lung cancer; Dosage 50, ip × 10qd
  Body weight of the animals, beginning, First time: 20.1 g
  Inhibition rate, First time: 25.10%
  Weight of the tumor X ± SD, First time: 1.82 ± 0.10 g
  Body weight of the animals, beginning, Second time: 19.0 g
  Inhibition rate, Second time: 28.67%
  Weight of the tumor X ± SD, Second time: 2.09 ± 0.19 g
Lewis lung cancer; Dosage 100 (mg/ml)
  Body weight of the animals, end, First time: 24.8 g
  Body weight of the animals, end, Second time: 25.2 g
Lewis lung cancer; Dosage 100, ip × 10qd
  Body weight of the animals, beginning, First time: 19.8 g
  Inhibition rate, First time: 34.98%
  Weight of the tumor X ± SD, First time: 1.58 ± 0.08 g
  Body weight of the animals, beginning, Second time: 19.3 g
  Inhibition rate, Second time: 39.59%
  Weight of the tumor X ± SD, Second time: 1.77 ± 0.15 g
Lewis lung cancer
  Inhibition rate (%) Lewis cancer: 39.59%
S180 sarcoma; Dosage 50 (mg/ml)
  Body weight of the animals, beginning, First time: 19.4 g
  Body weight of the animals, end, First time: 24.8 g
  Inhibition rate, First time: 19.48%
  Weight of the tumor X ± SD, First time: 2.15 ± 0.39 g
  Body weight of the animals, beginning, Second time: 18.6 g
  Body weight of the animals, end, Second time: 25.8 g
  Inhibition rate, Second time: 21.85%
S180 sarcoma; Dosage 50, ip × 10qd
  Weight of the tumor X ± SD, Second time: 2.11 ± 0.25 g
S180 sarcoma; Dosage 100 (mg/ml)
  Body weight of the animals, beginning, First time: 19.4 g
  Body weight of the animals, end, First time: 24.8 g
  Inhibition rate, First time: 31.09%
  Weight of the tumor X ± SD, First time: 1.84 ± 0.11 g
  Body weight of the animals, beginning, Second time: 18.5 g
  Body weight of the animals, end, Second time: 26.0 g
  Inhibition rate, Second time: 32.22%
S180 sarcoma; Dosage 100, ip × 10qd
  Weight of the tumor X ± SD, Second time: 1.83 ± 0.16 g
S180 sarcoma
  Inhibition rate (%) S180 sarcomata: 32.22%
In vivo
  LD50 at 2 weeks: 219 mg/kg

## CCOC(=O)Nc1cc2c3ccccc3n(Cc3ccccc3)c2cn1 [Compound 55, 3-[(ethoxycarbonyl)amino]-9-benzyl-β-carboline]
HepG2; [3]
  IC50: > 3000 µM
PLA-801; [4]
  IC50: 520 µM
Bel-7402; [5]
  IC50: 2440 µM
BGC-823; [6]
  IC50: > 3000 µM
Hela; [7]
  IC50: > 3000 µM
Lovo; [8]
  IC50: 2130 µM
NIH3T3; [9]
  IC50: 1790 µM
Kunming mice; [1]
  Death rate: 0
Kunming mice; [2]
  Death rate: 50
Kunming mice; female mice, 240 mg/kg
  Death rate: 0
Kunming mice; female mice, 300 mg/kg
  Death rate: 60
Kunming mice; male mice, 240 mg/kg
  Death rate: 0
Kunming mice; male mice, 300 mg/kg
  Death rate: 40
Lewis lung cancer; Lewis lung cancer in mice, among 22 compounds tested
  Anti-tumor activity compared with harmine (compound 1): a little worse than or equivalent to that of harmines
Lewis lung cancer; Dosage 50 (mg/ml)
  Body weight of the animals, end, First time: 23.8 g
  Body weight of the animals, end, Second time: 24.5 g
Lewis lung cancer; Dosage 50, ip × 10qd
  Body weight of the animals, beginning, First time: 18.7 g
  Inhibition rate, First time: 21.91%
  Weight of the tumor X ± SD, First time: 1.96 ± 0.12 g
  Body weight of the animals, beginning, Second time: 19.6 g
  Inhibition rate, Second time: 24.58%
  Weight of the tumor X ± SD, Second time: 1.78 ± 0.19 g
Lewis lung cancer; Dosage 100 (mg/ml)
  Body weight of the animals, end, First time: 23.5 g
  Body weight of the animals, end, Second time: 23.9 g
Lewis lung cancer; Dosage 100, ip × 10qd
  Body weight of the animals, beginning, First time: 19.1 g
  Inhibition rate, First time: 29.88%
  Weight of the tumor X ± SD, First time: 1.76 ± 0.10 g
  Body weight of the animals, beginning, Second time: 19.7 g
  Inhibition rate, Second time: 30.93%
  Weight of the tumor X ± SD, Second time: 1.63 ± 0.18 g
Lewis lung cancer
  Inhibition rate (%) Lewis cancer: 30.93%
S180 sarcoma; Dosage 50 (mg/ml)
  Body weight of the animals, beginning, First time: 19.8 g
  Body weight of the animals, end, First time: 27.0 g
  Inhibition rate, First time: 23.51%
  Weight of the tumor X ± SD, First time: 2.18 ± 0.23 g
  Body weight of the animals, beginning, Second time: 20.9 g
  Body weight of the animals, end, Second time: 24.8 g
  Inhibition rate, Second time: 20.00%
S180 sarcoma; Dosage 50, ip × 10qd
  Weight of the tumor X ± SD, Second time: 2.28 ± 0.18 g
S180 sarcoma; Dosage 100 (mg/ml)
  Body weight of the animals, beginning, First time: 19.4 g
  Body weight of the animals, end, First time: 26.7 g
  Inhibition rate, First time: 29.12%
  Weight of the tumor X ± SD, First time: 2.02 ± 0.22 g
  Body weight of the animals, beginning, Second time: 20.3 g
  Body weight of the animals, end, Second time: 24.9 g
  Inhibition rate, Second time: 28.07%
S180 sarcoma; Dosage 100, ip × 10qd
  Weight of the tumor X ± SD, Second time: 2.05 ± 0.17 g
S180 sarcoma
  Inhibition rate (%) S180 sarcomata: 29.12%
In vivo
  MTD at 2 weeks: 240 mg/kg
